# Literature values, collected in US12319654B2, “Inert nanocapsules” (THE UNIVERSITY COURT OF THE UNIVERSITY OF EDINBURGH, priority 2018, dated 2025).
# Settings: free anion
smiles,measurement,value
[O]=[99Tc](=[O])(=[O])[O-] [^99mTcO4^−],Clearance time,ca. 30 mins
